# Reference: patent publication US20160122387A1, “Angiotensin Peptide and Pharmaceutical Compositions for Disease Treatment” (UNIVERSIDADE FEDERAL DE MINAS GERAIS - UFMG, priority 2012, published 2016)
# Experiments:
# [1] = system: conscious SHR; assay: Acute IV bolus administration, MAP and HR in conscious SHR; assay type: in vivo, rat
# Description: Wistar and SHR rats were anesthetized with 2.5% tribromoethanol, intraperitoneally (1 mL/100 g). For femoral artery cannulation, cannulas made by connecting 15 cm polyethylene PESO to 4 cm of PE10 polyethylene were used, filled with saline solution (NaCl 0.9%) and heparin (100 IU/0.1 mL). After the animal was placed supine on the operating table, a trichotomy of the right inguinal region of the animal was performed. A small skin incision was made; the femoral neurovascular bundle was located and the femoral artery isolated. The cannula was introduced into the abdominal aorta through the femoral artery and was used for obtaining the cardiovascular parameters. A second cannula made by connecting 15 cm polyethylene PESO to 2 cm of PE10 polyethylene, filled with saline (0.9% NaCl), was inserted into the femoral vein for administration of peptides. After cannulation, the catheters were secured and exteriorized subcutaneously into the back of the animal, in the cervical region. The incisions were sutured and the animals placed in individual cages, with free access to water and feed. The values of mean arterial pressure (MAP) and heart rate (HR) were calculated from PA pulses and recorded by the data acquisition system (BIOPAC System, Model MP150). The pulsatile arterial pressure (PAP) was recorded by a signal sent to a transducer connected to the cannula inserted into the abdominal aorta via the femoral artery. The pressure oscillations were captured, amplified and converted by an analog/digital conversion board feeding signals to the data acquisition board. Through the card reader software, AcqKnowledge v.3.5.7 (Biopac System), PAP was continuously recorded with a sampling frequency of 2000-4000 Hz. Twenty-four hours after implantation of the cannulas was conducted, the first protocol, which consisted of acute intravenous administration of peptides was performed. For this, during the experiment, the arterial catheter was connected to the pressure transducer for the beginning of the record. After 90 minutes of cardiovascular parameters stabilization (baseline), the administration of the peptides […]-Ang-(1-7), Ang (1-7) or saline in a final volume of 300 uL was given in bolus. […] The Ang-(1-7) also was used to compare the effect induced by each peptide. Doses of 0.1 nmol/kg; 0.5 nmol/kg; 2.5 nmol/kg and 12.5 nmol/kg were administered to SHR (n=5-7 for each dose) while awake. […] After injection of the peptide or saline, cardiovascular parameters were continuously monitored for a period of 5 hours. The values of the MAP and HR were obtained every 10 minutes throughout the experimental period. Results are presented as mean±standard error of the mean. Two-way analysis of variance (ANOVA) with Bonferroni's multiple comparison post-test were used to compare the time-response curve obtained during the bolus administration in […]-Ang-(1-7) and Ang-(1-7). All statistical analyses were considered significant when p<0.05.
# [2] = system: awake Wistar rats; assay: Acute IV bolus administration, MAP and HR in awake Wistar rats; assay type: in vivo, rat; conditions: IV bolus 0.5 nmol/kg
# Description: Wistar and SHR rats were anesthetized with 2.5% tribromoethanol, intraperitoneally (1 mL/100 g). For femoral artery cannulation, cannulas made by connecting 15 cm polyethylene PESO to 4 cm of PE10 polyethylene were used, filled with saline solution (NaCl 0.9%) and heparin (100 IU/0.1 mL). After the animal was placed supine on the operating table, a trichotomy of the right inguinal region of the animal was performed. A small skin incision was made; the femoral neurovascular bundle was located and the femoral artery isolated. The cannula was introduced into the abdominal aorta through the femoral artery and was used for obtaining the cardiovascular parameters. […] The values of mean arterial pressure (MAP) and heart rate (HR) were calculated from PA pulses and recorded by the data acquisition system (BIOPAC System, Model MP150). The pulsatile arterial pressure (PAP) was recorded by a signal sent to a transducer connected to the cannula inserted into the abdominal aorta via the femoral artery. […] Through the card reader software, AcqKnowledge v.3.5.7 (Biopac System), PAP was continuously recorded with a sampling frequency of 2000-4000 Hz. […] After injection of the peptide or saline, cardiovascular parameters were continuously monitored for a period of 5 hours. […]
# [3] = system: protein kinase B (AKT); assay: Activation (Ser473 phosphorylation) of AKT in neonatal rat cardiomyocytes, Western blot; assay type: cell-based; conditions: cardiomyocyte cells, 10^−9 mol/L, five minutes
# Description: Wistar neonatal rat cardiomyocytes were cultured in regular growth medium consisting of DEMEM medium supplemented with 10% horse serum, 5% fetal bovine serum, 1% penicillin/streptomycin and 0.1% fibroblast inhibitor. The cells were maintained in serum free medium for three hours before the start of treatment. The study was carried out acutely, for five minutes using a concentration of 10^−9 mol/L of the following drugs diluted in culture medium: Ang-(1-7), arg0-Ang-(1-7) and insulin. Cells incubated with culture medium only were used as control group.
# Total protein was isolated from cardiomyocytes cells with lysis buffer containing protease inhibitors cocktail (Days-Peixoto et al., Hypertension 52: 542-548, 2008). Sixty micrograms of total protein was separated by electrophoresis, transferred to a nitrocellulose membrane, blocked with 5% skimmed milk powder diluted in Tris-saline containing 0.1% Tween, and finally incubated overnight with anti-AKT polyclonal antibody (1:1000), anti-Ser473 phospho-Akt (1:600), anti-glyceraldehyde-3-phosphate dehydrogenase (GAPDH—1:1000). Subsequently, the membranes were incubated with fluorescently labeled secondary antibody (1:10000), followed by identification and quantitation by the Odyssey program (LI-COR).
# The results are presented as mean+E.PM. […]
substance,measurement,setting,value
Asp-Arg-Val-Tyr-Ile-His-Pro [Ang-(1-7)],effect on MAP (PAM),"[1]; SHR, IV bolus 0.1 nmol/kg",did not significantly alter PAM
same,effect on MAP,"[1]; SHR, IV bolus 0.5 nmol/kg, vs saline group",no significant difference
same,change in heart rate (FC),"[1]; SHR, IV bolus 12.5 nmol/kg, last 30 minutes of the experiment",significantly reduced the FC
same,time after administration at which anti-hypertensive effect was observed,"[1]; SHR, IV bolus 2.5 and 12.5 nmol/kg",110 min
same,effect on MAP,"[1]; SHR, IV bolus 2.5 and 12.5 nmol/kg, vs saline group",significant anti-hypertensive effect
same,dose comparison of anti-hypertensive effect,"[1]; SHR, IV bolus 2.5 vs 12.5 nmol/kg",more potent at the dose of 2.5 nmol/kg
same,change in heart rate (CF),"[1]; SHR, IV bolus, all doses except 12.5 nmol/kg Ang-(1-7)",no change was observed
same,"change in MAP, time- and dose-dependent","[1]; awake SHR, acute intravenous, different doses, vs saline group",significant reduction in MAP
same,change in HR,[2],failed to induce significant changes
same,change in MAP,[2],failed to induce significant changes
same,activation of protein kinase B (AKT),[3],triggered the activation of protein kinase B (AKT)
